Results reported in BindingDB's records for doi:10.1016/j.bmcl.2012.10.040 (Pfizer, 2013).

Legend:
[1] = target: T1, Prostaglandin G/H synthase 2 (Homo sapiens, UniProt P35354); assay: Inhibition of COX2 in human whole blood assessed as PGE2 level incubated for 15 mins prior to substrate addition measured after 10 mins by ELISA
T1 sequence (P35354 whole entry): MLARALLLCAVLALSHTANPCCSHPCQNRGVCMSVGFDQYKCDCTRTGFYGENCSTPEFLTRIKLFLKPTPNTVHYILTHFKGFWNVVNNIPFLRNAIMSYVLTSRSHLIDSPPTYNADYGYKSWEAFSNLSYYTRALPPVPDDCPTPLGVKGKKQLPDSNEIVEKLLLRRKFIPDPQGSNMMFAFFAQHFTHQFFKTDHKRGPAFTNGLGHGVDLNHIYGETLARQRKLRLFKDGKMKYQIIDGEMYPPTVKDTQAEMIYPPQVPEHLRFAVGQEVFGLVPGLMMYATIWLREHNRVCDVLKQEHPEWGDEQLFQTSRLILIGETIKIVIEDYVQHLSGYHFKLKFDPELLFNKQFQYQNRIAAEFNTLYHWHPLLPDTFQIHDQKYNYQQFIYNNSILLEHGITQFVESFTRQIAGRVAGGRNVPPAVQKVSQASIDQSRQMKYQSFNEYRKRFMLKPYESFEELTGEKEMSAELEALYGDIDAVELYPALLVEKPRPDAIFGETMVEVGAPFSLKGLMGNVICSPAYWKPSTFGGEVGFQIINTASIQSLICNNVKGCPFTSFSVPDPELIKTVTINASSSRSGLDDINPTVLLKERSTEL

[2] = target: T1, Prostaglandin G/H synthase 2; assay: Inhibition of COX2 in human fetal fibroblast assessed as inhibition of IL-1beta-mediated PGE2 production after 50 mins by ELISA
[3] = target: T1, Prostaglandin G/H synthase 2; assay: Inhibition of COX2 in human whole blood assessed as LPS-induced PGE2 production incubated 15 mins prior to LPS challenge measured after 24 hrs by EIA
[4] = target: T2, Prostaglandin G/H synthase 2 (Rattus norvegicus, UniProt P35355); assay: Inhibition of COX2 in rat synovial fibroblast assessed as inhibition of IL-1-mediated PGE2 production
T2 sequence (P35355 whole entry): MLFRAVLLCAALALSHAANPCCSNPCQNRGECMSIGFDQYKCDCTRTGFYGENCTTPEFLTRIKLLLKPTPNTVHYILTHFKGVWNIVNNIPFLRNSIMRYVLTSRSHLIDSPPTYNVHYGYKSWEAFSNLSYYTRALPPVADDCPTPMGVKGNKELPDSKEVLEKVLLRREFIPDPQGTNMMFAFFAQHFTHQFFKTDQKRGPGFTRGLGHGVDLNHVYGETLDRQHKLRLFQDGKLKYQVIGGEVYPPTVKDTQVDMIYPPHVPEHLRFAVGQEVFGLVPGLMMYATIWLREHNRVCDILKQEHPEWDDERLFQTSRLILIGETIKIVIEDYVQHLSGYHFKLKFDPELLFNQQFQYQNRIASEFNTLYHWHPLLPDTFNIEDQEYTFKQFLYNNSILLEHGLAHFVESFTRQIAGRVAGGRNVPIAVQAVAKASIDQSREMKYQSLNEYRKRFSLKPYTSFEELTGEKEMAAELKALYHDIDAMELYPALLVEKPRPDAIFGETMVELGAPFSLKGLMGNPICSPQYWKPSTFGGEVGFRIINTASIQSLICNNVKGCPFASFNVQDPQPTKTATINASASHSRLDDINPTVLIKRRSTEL

[5] = target: T3, Prostaglandin G/H synthase 2 (Canis lupus familiaris, UniProt Q8SPQ9); assay: Inhibition of COX2 in dog whole blood assessed as LPS-induced PGE2 production
T3 sequence (Q8SPQ9 whole entry): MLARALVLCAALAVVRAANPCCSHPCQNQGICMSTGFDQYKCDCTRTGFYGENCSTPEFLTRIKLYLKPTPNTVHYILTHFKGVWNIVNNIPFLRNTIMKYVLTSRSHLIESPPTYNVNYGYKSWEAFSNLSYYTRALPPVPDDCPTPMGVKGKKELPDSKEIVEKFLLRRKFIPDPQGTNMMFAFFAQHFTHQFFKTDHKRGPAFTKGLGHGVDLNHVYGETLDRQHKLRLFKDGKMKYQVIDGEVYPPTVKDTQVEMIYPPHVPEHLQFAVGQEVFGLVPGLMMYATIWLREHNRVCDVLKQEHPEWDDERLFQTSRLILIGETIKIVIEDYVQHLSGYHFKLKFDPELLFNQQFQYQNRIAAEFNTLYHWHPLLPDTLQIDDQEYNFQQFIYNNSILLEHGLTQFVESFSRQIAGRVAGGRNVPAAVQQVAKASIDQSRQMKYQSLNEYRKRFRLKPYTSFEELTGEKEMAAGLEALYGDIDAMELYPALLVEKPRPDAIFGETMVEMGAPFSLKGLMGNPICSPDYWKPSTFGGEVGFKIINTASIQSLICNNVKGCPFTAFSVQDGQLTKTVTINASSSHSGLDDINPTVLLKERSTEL

| Structure (SMILES) | IC50 [1] [µM] | IC50 [2] [µM] | IC50 [3] [µM] | IC50 [4] [µM] | IC50 [5] [µM] |
| --- | --- | --- | --- | --- | --- |
| O=C(N[C@H]1CCC[C@@H]1COc1ccccc1)C1CCN(c2nc3cc(Cl)ccc3o2)CC1 | > 33.6 | 0.085 |  |  |  |
| O=C(N[C@H]1CCC[C@@H]1OCc1ccccc1)C1CCN(c2nc3cc(Cl)ccc3o2)CC1 | 7.56 | 0.035 | 0.934 | > 30 | 1.23 |
| O=C(NC1CCCC1)C1CCN(c2nc3cc(Cl)ccc3o2)CC1 |  | 1.01 |  |  |  |
| O=C(N[C@H]1CC[C@H](CO)CC1)C1CCN(c2nc3cc(Cl)ccc3o2)CC1 |  | > 10 |  |  |  |
| O=C(N[C@H]1CC[C@@H](CO)CC1)C1CCN(c2nc3cc(Cl)ccc3o2)CC1 | 11.1 | 1.26 |  |  |  |
| O=C(N[C@H]1CCC[C@H]1OCc1ccccc1)C1CCN(c2nc3cc(Cl)ccc3o2)CC1 | 76.6 | 0.618 |  |  |  |
| O=C(N[C@@H]1CCC[C@H]1OCc1ccccc1)C1CCN(c2nc3cc(Cl)ccc3o2)CC1 | 27.4 | 0.296 |  |  |  |
